According to ChEMBL document CHEMBL1125975, “Enzymic and nonenzymic lipid peroxidation: inhibition by substituted phenoxazines” (Bioorg Med Chem Lett, 1991):
Converted amounts (≈) assume the structure as drawn.

Species on record: Oryctolagus cuniculus
Experiment: Minimum concentration of compound was evaluated for inhibiting iron-dependent lipid peroxidation of rabbit brain homogenate in vitro
Format: functional

Row | MIC [µM] | Compound
1 | 9.1 (≈ 2.34 µg/mL) | COc1ccc2c(c1C(=O)O)Nc1ccccc1O2
2 | 0.35 (≈ 0.0988 µg/mL) | CN(O)C(=O)/C=C/c1ccc2c(c1)Nc1ccccc1O2
3 | 0.65 (≈ 0.167 µg/mL) | CN(O)C(=O)c1ccc2c(c1)Nc1ccccc1O2
4 | 0.41 (≈ 0.0993 µg/mL) | O=C(NO)c1ccc2c(c1)Nc1ccccc1O2
5 | 3.7 (≈ 1.01 µg/mL) | COc1ccc2c(c1C(=O)NO)Nc1ccccc1O2
6 | 0.22 (≈ 0.0531 µg/mL) | COC(=O)c1ccc2c(c1)Nc1ccccc1O2
7 | 0.44 (≈ 0.1 µg/mL) | O=C(O)c1ccc2c(c1)Nc1ccccc1O2
8 | 0.12 (≈ 0.0304 µg/mL) | O=C(O)/C=C/c1ccc2c(c1)Nc1ccccc1O2
9 | 0.19 (≈ 0.0534 µg/mL) | CCOC(=O)/C=C/c1ccc2c(c1)Nc1ccccc1O2
10 | 4.2 (≈ 1.01 µg/mL) | COC(=O)c1cccc2c1Nc1ccccc1O2
11 | 4.4 (≈ 1 µg/mL) | O=C(O)c1cccc2c1Nc1ccccc1O2
12 | 0.055 (≈ 0.0101 µg/mL) | c1ccc2c(c1)Nc1ccccc1O2 [PHENOXAZINE]
